According to ChEMBL document CHEMBL5465560, “Selectivity Literature for EUbOPEN Chemogenomic Library” (2024):

Experiments:
[1] = molecular target: T1, Mitogen-activated protein kinase kinase kinase 5 (Homo sapiens) (UniProt Q99683); assay: Selectivity interaction (Kinase panel (DSF assay)) EUB0001558a MAP3K5
T1 sequence (whole entry): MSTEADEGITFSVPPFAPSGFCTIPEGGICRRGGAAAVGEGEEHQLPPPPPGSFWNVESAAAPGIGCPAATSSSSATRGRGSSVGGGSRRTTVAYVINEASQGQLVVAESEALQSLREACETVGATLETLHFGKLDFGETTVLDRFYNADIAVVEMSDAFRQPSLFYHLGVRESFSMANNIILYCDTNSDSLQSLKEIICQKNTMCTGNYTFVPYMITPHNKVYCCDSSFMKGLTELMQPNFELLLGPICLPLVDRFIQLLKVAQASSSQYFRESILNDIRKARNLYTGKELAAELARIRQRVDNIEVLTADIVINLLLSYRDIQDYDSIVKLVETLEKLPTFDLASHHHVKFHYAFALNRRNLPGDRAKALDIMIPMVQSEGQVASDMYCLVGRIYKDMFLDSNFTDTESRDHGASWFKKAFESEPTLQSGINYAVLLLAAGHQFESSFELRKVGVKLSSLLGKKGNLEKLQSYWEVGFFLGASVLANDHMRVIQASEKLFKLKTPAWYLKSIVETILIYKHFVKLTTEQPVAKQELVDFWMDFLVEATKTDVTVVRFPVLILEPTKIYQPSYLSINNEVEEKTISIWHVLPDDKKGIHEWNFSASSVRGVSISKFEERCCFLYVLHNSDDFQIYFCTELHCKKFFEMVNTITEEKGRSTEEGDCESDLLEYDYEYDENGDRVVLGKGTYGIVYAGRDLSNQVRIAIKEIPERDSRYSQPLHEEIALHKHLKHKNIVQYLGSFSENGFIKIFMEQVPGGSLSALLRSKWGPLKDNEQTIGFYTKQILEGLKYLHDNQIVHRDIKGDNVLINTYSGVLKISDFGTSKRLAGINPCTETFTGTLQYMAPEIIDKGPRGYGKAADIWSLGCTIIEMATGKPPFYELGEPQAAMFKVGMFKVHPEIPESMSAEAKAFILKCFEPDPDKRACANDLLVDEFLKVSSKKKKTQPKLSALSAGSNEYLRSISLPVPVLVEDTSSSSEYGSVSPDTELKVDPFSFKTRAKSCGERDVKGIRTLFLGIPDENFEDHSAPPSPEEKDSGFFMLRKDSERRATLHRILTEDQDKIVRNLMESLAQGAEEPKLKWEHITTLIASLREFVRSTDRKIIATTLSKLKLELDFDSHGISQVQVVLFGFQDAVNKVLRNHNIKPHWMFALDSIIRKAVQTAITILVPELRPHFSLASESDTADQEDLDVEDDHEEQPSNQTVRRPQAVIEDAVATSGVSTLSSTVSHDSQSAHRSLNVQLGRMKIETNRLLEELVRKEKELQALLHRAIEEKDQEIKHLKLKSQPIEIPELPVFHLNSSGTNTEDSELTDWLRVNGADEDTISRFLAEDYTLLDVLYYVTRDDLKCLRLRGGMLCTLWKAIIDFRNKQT

[2] = molecular target: T2, Ephrin type-B receptor 1 (Homo sapiens) (UniProt P54762); assay: Selectivity interaction (Upstate Kinase Profiler service (Millipore)) EUB0000056c EPHB1; conditions: at 1 µM
T2 sequence (whole entry): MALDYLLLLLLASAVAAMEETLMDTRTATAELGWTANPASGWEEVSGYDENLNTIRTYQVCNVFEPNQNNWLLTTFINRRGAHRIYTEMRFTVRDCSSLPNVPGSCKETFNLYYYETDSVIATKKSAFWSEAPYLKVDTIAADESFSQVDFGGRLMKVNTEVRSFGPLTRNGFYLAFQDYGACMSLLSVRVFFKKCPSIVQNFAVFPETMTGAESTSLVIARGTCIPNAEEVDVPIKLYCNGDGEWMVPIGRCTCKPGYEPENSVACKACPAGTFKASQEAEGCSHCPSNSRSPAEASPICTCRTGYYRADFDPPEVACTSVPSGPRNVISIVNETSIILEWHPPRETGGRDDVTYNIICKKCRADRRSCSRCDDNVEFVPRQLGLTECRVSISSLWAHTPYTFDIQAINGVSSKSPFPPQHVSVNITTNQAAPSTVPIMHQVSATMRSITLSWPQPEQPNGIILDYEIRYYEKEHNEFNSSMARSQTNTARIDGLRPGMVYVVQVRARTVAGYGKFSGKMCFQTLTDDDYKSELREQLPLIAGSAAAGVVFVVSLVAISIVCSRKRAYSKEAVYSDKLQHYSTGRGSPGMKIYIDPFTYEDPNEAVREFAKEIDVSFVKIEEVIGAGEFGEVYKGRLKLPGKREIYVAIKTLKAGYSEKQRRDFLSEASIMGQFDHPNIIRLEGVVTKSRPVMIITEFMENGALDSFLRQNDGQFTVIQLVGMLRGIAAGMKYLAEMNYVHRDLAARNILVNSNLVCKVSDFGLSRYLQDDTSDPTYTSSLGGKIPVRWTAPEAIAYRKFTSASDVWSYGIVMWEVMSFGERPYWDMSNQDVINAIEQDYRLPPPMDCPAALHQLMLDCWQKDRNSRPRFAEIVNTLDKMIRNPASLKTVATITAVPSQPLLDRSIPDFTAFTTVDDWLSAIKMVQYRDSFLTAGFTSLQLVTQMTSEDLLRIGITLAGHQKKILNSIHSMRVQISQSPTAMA

Structure (SMILES)	dTM [1] [K]	% of inhibition [2] [%]
CC(C)(O)[C@H](F)CN1Cc2cc(NC(=O)c3cnn4cccnc34)c(N3CCOCC3)cc2C1=O	0.5	–
Cc1ccc(-c2ccc3c(ccc4sc5c(c43)NC[C@@H](C)NC5=O)n2)cn1	–	9
